The record followed here is patent US20230085307A1, “PYRIDAZINONE COMPOUND AND HERBICIDE” (NISSAN CHEMICAL CORPORATION, priority 2019, published 2023).

In one assay the test system is late watergrass. Description: Test Example 1: herbicidal activity, application before weed generation under submerged conditions (Table 16, symbol A). The format is in vivo, late watergrass (Echinochloa oryzicola). In short, it runs like this:
(§1)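 Submerged Wagner pots (alluvial soil, 4 cm water) sown with weed seeds and planted with 2.5-leaf rice seedlings; emulsifiable concentrate diluted in water applied to water surface on sowing day. Held in greenhouse at 25-30 °C; injury scored 0-5 by herbicidal rate after three weeks.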

A further assay concerns Japanese bulrush. Put plainly: Test Example 1: herbicidal activity, application before weed generation under submerged conditions (Table 16, symbol B). The format is in vivo, Japanese bulrush (Schoenoplectus juncoides). In short, it runs like this: as §1
The subject of the next assay is oval-leafed pondweed. Put plainly: Test Example 1: herbicidal activity, application before weed generation under submerged conditions (Table 16, symbol C). The format is in vivo, oval-leafed pondweed (Monochoria vaginalis). In short, it runs like this:
as §1

For assay [1], the system named is barnyard grass. Description: Test Example 3: herbicidal effect by foliage application, Wagner pot (Table 18, symbol H). The format is in vivo, barnyard grass (Echinochloa crus-galli). The settings on record: 320 g/ha. In short, it runs like this: (§2)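 Plants were sown in alluvial soil held under 0.1–0.5 cm standing water and grown 14 days in a greenhouse at 25–30 °C. An emulsifiable formulation, water-diluted to the set dose, was then sprayed onto the foliage, and effects were scored three weeks later using previously defined criteria.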

A further assay concerns Chinese sprangletop. Put plainly: Test Example 3: herbicidal effect by foliage application, Wagner pot (Table 18, symbol D). The format is in vivo, chinese sprangletop (Leptochloa chinensis). The settings on record: 320 g/ha. The method, boiled down: as §2
For the next assay, the system named is rice flat sedge. Put plainly: Test Example 3: herbicidal effect by foliage application, Wagner pot (Table 18, symbol E). The format is in vivo, rice flat sedge (Cyperus iria). The settings on record: 320 g/ha. The method, boiled down:
as §2

In a further assay the test system is southern crabgrass. Description: Test Example 5: herbicidal effect by foliage application, plastic box (Table 20, symbol F). The settings on record: foliage application, 320 g/ha, three weeks after application. The format is in vivo, southern crabgrass (Digitaria ciliaris). The method, boiled down:
(§3)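 Post-emergence foliar test in sterilized diluvial soil. Compound applied as water-diluted emulsion at a predetermined rate to 14-day-old plants; evaluation at three weeks.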

In a further assay the test system is green foxtail. Put plainly: Test Example 5: herbicidal effect by foliage application, plastic box (Table 20, symbol G). The settings on record: foliage application, 320 g/ha, three weeks after application. The format is in vivo, green foxtail (Setaria viridis). The method, boiled down:
as §3

Assay [2] relates to barnyard grass. Description: Test Example 5: herbicidal effect by foliage application, plastic box (Table 20, symbol H). The settings on record: foliage application, 320 g/ha, three weeks after application. The format is in vivo, barnyard grass (Echinochloa crus-galli). The method, boiled down: as §3
The next assay concerns wild oat. Description: Test Example 5: herbicidal effect by foliage application, plastic box (Table 20, symbol I). The format is in vivo, wild oat (Avena fatua). The settings on record: foliage application, 320 g/ha, three weeks after application. The method, boiled down: as §3
A further assay deals with blackgrass. Put plainly: Test Example 5: herbicidal effect by foliage application, plastic box (Table 20, symbol J). The format is in vivo, blackgrass (Alopecurus myosuroides). The settings on record: foliage application, 320 g/ha, three weeks after application. The method, boiled down: as §3
The subject of a further assay is Italian ryegrass. Put plainly: Test Example 5: herbicidal effect by foliage application, plastic box (Table 20, symbol K). The format is in vivo, Italian ryegrass (Lolium multiflorum). The settings on record: foliage application, 320 g/ha, three weeks after application. The method, boiled down: as §3
The next assay relates to windgrass. Put plainly: Test Example 5: herbicidal effect by foliage application, plastic box (Table 20, symbol L). The format is in vivo, windgrass (Apera spica-venti). The settings on record: foliage application, 320 g/ha, three weeks after application. In short, it runs like this: as §3
The next assay has as its system velvetleaf. Put plainly: Test Example 5: herbicidal effect by foliage application, plastic box (Table 20, symbol M). The format is in vivo, velvetleaf (Abutilon theophrasti). The settings on record: foliage application, 320 g/ha, three weeks after application. In short, it runs like this:
as §3

Another assay deals with lambsquarters. Description: Test Example 5: herbicidal effect by foliage application, plastic box (Table 20, symbol O). The format is in vivo, lambsquarters (Chenopodium album). The settings on record: foliage application, 320 g/ha, three weeks after application. In short, it runs like this:
as §3

Another assay deals with chickweed. Description: Test Example 5: herbicidal effect by foliage application, plastic box (Table 20, symbol P). The settings on record: foliage application, 320 g/ha, three weeks after application. The format is in vivo, common chickweed (Stellaria media). The method, boiled down:
as §3

The next assay concerns false cleavers. Description: Test Example 5: herbicidal effect by foliage application, plastic box (Table 20, symbol Q). The settings on record: foliage application, 320 g/ha, three weeks after application. The format is in vivo, false cleavers (Galium spurium). In short, it runs like this:
as §3

The subject of another assay is persian speedwell. Description: Test Example 5: herbicidal effect by foliage application, plastic box (Table 20, symbol R). The format is in vivo, Persian speedwell (Veronica persica). The settings on record: foliage application, 320 g/ha, three weeks after application. In short, it runs like this:
as §3

Where [3] appears, read: amount of applied herbicide 320 g/ha.

Regarding `COc1ccc(-c2sc3ccccc3c2-c2c(O)c(C)nn(C)c2=O)c(OC)c1` [1-070], in the assay with late watergrass (320 g/ha applied herbicide), the “Herbicidal effect on A: late watergrass (grade 0-5)” value is 3 (Herbicidal rate of 40% or more and less than 70%). Also, the “Herbicidal effect on B: Japanese bulrush (grade 0-5)” value with Japanese bulrush (320 g/ha applied herbicide) is 3 (Herbicidal rate of 40% or more and less than 70%). Besides, the “Herbicidal effect on C: oval-leafed pondweed (grade 0-5)” value in the assay with oval-leafed pondweed (320 g/ha applied herbicide) is 1 (Herbicidal rate of 5% or more and less than 20%). For the same compound, in the assay on barnyard grass [1], the “herbicidal effect on H (barnyard grass), rating 0-5” value is 1 (Herbicidal rate of 5% or more and less than 20%). For the same compound, the “herbicidal effect on D (Chinese sprangletop), rating 0-5” value with Chinese sprangletop is 0 (Herbicidal rate of 5% or less (almost no effect)). Further, in the assay on rice flat sedge, the “herbicidal effect on E (rice flat sedge), rating 0-5” value is 3 (Herbicidal rate of 40% or more and less than 70%). In addition, in the assay on southern crabgrass, the “herbicidal effect grade, F: southern crabgrass” value is 3 (Herbicidal rate of 40% or more and less than 70%). In the assay on green foxtail, the “herbicidal effect grade, G: green foxtail” value is 3 (Herbicidal rate of 40% or more and less than 70%). Besides, in the assay on barnyard grass [2], the “herbicidal effect grade, H: barnyard grass” value was 0 (Herbicidal rate of 5% or less (almost no effect)). Moreover, the “herbicidal effect grade, I: wild oat” value in the assay on wild oat is 1 (Herbicidal rate of 5% or more and less than 20%). Besides, in the assay with blackgrass, the “herbicidal effect grade, J: blackgrass” value is 0 (Herbicidal rate of 5% or less (almost no effect)). In addition, the “herbicidal effect grade, K: Italian ryegrass” value with Italian ryegrass is 1 (Herbicidal rate of 5% or more and less than 20%). For the same compound, the “herbicidal effect grade, L: windgrass” value in the assay on windgrass was 3 (Herbicidal rate of 40% or more and less than 70%). In addition, the “herbicidal effect grade, M: velvetleaf” value with velvetleaf was 2 (Herbicidal rate of 20% or more and less than 40%). The “herbicidal effect grade, O: lambsquarters” value in the assay on lambsquarters was 0 (Herbicidal rate of 5% or less (almost no effect)). Besides, in the assay with chickweed, the “herbicidal effect grade, P: chickweed” value is listed as 5 (Herbicidal rate of 90% or more (almost completely withered)). In addition, the “herbicidal effect grade, Q: false cleavers” value in the assay on false cleavers was 2 (Herbicidal rate of 20% or more and less than 40%). Besides, the “herbicidal effect grade, R: persian speedwell” value in the assay on persian speedwell is 4 (Herbicidal rate of 70% or more and less than 90%).
For the compound `COc1cc2sc(-c3ccccc3)c(-c3c(O)c(C)nn(C)c3=O)c2cc1OC` [5-055], the “Herbicidal effect, A: late watergrass” value with late watergrass (setting [3]) was 2 (Herbicidal rate of 20% or more and less than 40%). The “Herbicidal effect, B: Japanese bulrush” value in the assay on Japanese bulrush (setting [3]) is reported as 0 (Herbicidal rate of 5% or less (almost no effect)). The “Herbicidal effect, C: oval-leafed pondweed” value with oval-leafed pondweed (setting [3]) was 0 (Herbicidal rate of 5% or less (almost no effect)). The “herbicidal effect on barnyard grass (H)” value in the assay on barnyard grass [1] was 1 (Herbicidal rate of 5% or more and less than 20%); in the assay on barnyard grass [2] it was 0 (Herbicidal rate of 5% or less (almost no effect)). Moreover, the “herbicidal effect on Chinese sprangletop (D)” value in the assay on Chinese sprangletop is on record as 0 (Herbicidal rate of 5% or less (almost no effect)). Moreover, the “herbicidal effect on rice flat sedge (E)” value with rice flat sedge was 3 (Herbicidal rate of 40% or more and less than 70%). Besides, the “herbicidal effect on southern crabgrass (F)” value in the assay with southern crabgrass is on record as 0 (Herbicidal rate of 5% or less (almost no effect)). Also, in the assay with green foxtail, the “herbicidal effect on green foxtail (G)” value was 0 (Herbicidal rate of 5% or less (almost no effect)). Besides, in the assay on wild oat, the “herbicidal effect on wild oat (I)” value is 0 (Herbicidal rate of 5% or less (almost no effect)). The “herbicidal effect on blackgrass (J)” value in the assay with blackgrass is 0 (Herbicidal rate of 5% or less (almost no effect)). Further, in the assay on Italian ryegrass, the “herbicidal effect on Italian ryegrass (K)” value was 4 (Herbicidal rate of 70% or more and less than 90%). The “herbicidal effect on windgrass (L)” value in the assay on windgrass is reported as 0 (Herbicidal rate of 5% or less (almost no effect)). Besides, in the assay with velvetleaf, the “herbicidal effect on velvetleaf (M)” value is 2 (Herbicidal rate of 20% or more and less than 40%). In the assay on false cleavers, the “herbicidal effect on false cleavers (Q)” value was 0 (Herbicidal rate of 5% or less (almost no effect)). In addition, the “herbicidal effect on persian speedwell (R)” value with persian speedwell was 4 (Herbicidal rate of 70% or more and less than 90%).
